Results on one compound are retold here after patent US6294527A, “Cephem compounds” (Zenyaku Kogyo Kabushiki Kaisha, priority 1996, dated 2001).

≈ marks a conversion by molar mass, not a printed value.

Assay [1] concerns Staphylococcus aureus (S. aureus FDA 209P). As to the kind of experiment: Agar plate dilution MIC, Staphylococcus aureus FDA 209P. The format is cell-based. To be noted: FDA209P, agar plate dilution, inoculum 10^6 CFU/ml, read-out: MIC S. aureus FDA 209P. The method, then:
(§1) Antibacterial test was performed in substantial accordance with agar plate dilution method based on Standard method of The Japan Society of Chemotherapy to determine minimum inhibitory concentration (MIC) of the respective test compounds against Staphylococcus aureus (S. aureus FDA 209P) and vancomycin-resistant enterococci (E. faecalis NCTC-12201). Also determined was MIC80 on clinically separated strains (27 strains) of MRSA. The inoculated amount was 10^6 CFU/ml and flomoxef (FMOX) and vancomycin (VCM) were used as controls.

In assay [2] the test system is vancomycin-resistant enterococci (E. faecalis NCTC-12201). Kind of assay: Agar plate dilution MIC, vancomycin-resistant enterococci E. faecalis NCTC-12201. The format is cell-based. The conditions noted are these: Enterococcus faecalis, NCTC12201; agar plate dilution; inoculum 10^6 CFU/ml; vancomycin-resistant; read-out: MIC E. faecalis NCTC-12201. The procedure:
as §1

In general, MIC refers to the least concentration at which growth counts as inhibited. On to `O=C(Cc1cccs1)N[C@@H]1C(=O)N2C(C(=O)O)=C(C=CSc3cc(=O)c4ccc(O)cc4s3)CS[C@H]12` [compound 8, 7-[2-(2-thienyl)acetamide]-3-[2-(7-hydroxy-4-oxo-4H-1-benzothiopyran-2-yl)thiovinyl]-3-cephem-4-carboxylic acid], for which the minimum inhibitory concentration (MIC) in assay [1] was determined as 0.2 µg/mL (≈ 0.358 µM); in assay [2], 12.5 µg/mL (≈ 22.4 µM).
